We go through four compounds from patent US20220248732A1, “Saltiness-Perception Enhancing Compounds” (Frito-Lay North America, Inc., priority 2021, published 2022).

Assay [1] has as its system panelists (saltiness intensity). Nature of the assay: Descriptive analysis of saltiness intensity of topically coated potato chip samples (sample sets 3 and 4), 15-point scale. The class given is in vivo, human. Particulars: for salt-enhancing activity on potato chips: applied topically (as mixture) to 20% and 40% salt reduced potato chips at the 1x dosage. The text has this:
(§1) The terms “saltiness,” “saltiness intensity,” and “mean saltiness intensity” may refer to the saltiness intensity of a compound, a composition, and/or a food product determined by an individual tasting a sample of the compound, the composition, and/or the food product and rating its saltiness intensity using a designated scale, such as the 15-point saltiness scale described herein.
(§2) Next, the panelists conducted descriptive analysis to evaluate the saltiness intensity of the following four sample sets.
(3) 1 g potato chip samples with 20% reduction in NaCl (12.3 g NaCl/kg) and 40% reductions in NaCl (9.2 g NaCl/kg), relative to traditional potato chips (15.4 g NaCl/kg); and
(4) 1 g potato chip samples at 20% and 40% salt reductions (relative to standard potato chips) with the addition of a mixture of the identified saltiness-enhancing compounds topically applied to potato chips at the endogenous level of the analyzed unsalted potato chips (1×).
Panelist evaluation of sample set (3): Twelve panelists rated saltiness intensity using a 15-point scale, in duplicate. The saltiness references provided were 0 points (water), 2.5 points (0.2% NaCl), 5 points (0.35% NaCl), and 8.5 points (0.5% NaCl).
Panelist evaluation of sample set (4): Nine panelists rated saltiness intensity using a 15-point scale, in duplicate. The saltiness references provided were 0 points (water), 2.5 points (0.2% NaCl), 5 points (0.35% NaCl), and 8.5 points (0.5% NaCl). […] Thus, application of one or more of the identified saltiness-perception enhancing compounds to a food product may enable a reduction of up to about 40 wt % of the amount of salt applied to a food product while eliminating or attenuating the concomitant reduction in saltiness that would otherwise occur.

For assay [2] the test system is unchanged. Nature of the assay: Descriptive analysis of saltiness intensity of aqueous salt solutions (sample sets 1 and 2), 15-point scale. The class given is in vivo, human. Particulars: for saltiness enhancement in salt solutions: 1x dosage level, 3.52 g NaCl/L (20% NaCl reduction), Tukey HSD alpha 0.05.
Source text: as §1, §2
(1) 2 mL samples of aqueous salt solutions with a 20% reduction in NaCl (3.52 g NaCl/L H2O) and 40% reduction in NaCl (2.64 NaCl/L H2O), relative to 2 mL of a control sample having a simulated saltiness intensity of traditional potato chips (4.40 g NaCl/L H2O);
(2) 2 mL samples of pH 6.2-6.5 aqueous salt solutions at the 20% NaCl reduction level (3.52 g NaCl/L H2O) with the addition of individual ones of the identified saltiness-enhancing compounds, where the compound dosage was at the endogenous level of the analyzed unsalted potato chips (1×) and at three times the endogenous level of the potato chips (3×);
Panelist evaluation of sample set (1): Twelve panelists rated saltiness intensity using a 15-point scale, in duplicate. The saltiness references provided were 0 points (water), 2.5 points (0.2% NaCl), 5 points (0.35% NaCl), and 8.5 points (0.5% NaCl).
Panelist evaluation of sample set (2): Eight panelists rated saltiness intensity using a 15-point scale, in duplicate. The saltiness references provided were 0 points (water), 2.5 points (0.2% NaCl), 5 points (0.35% NaCl), and 8.5 points (0.5% NaCl). The sensory dosage concentrations of the saltiness-enhancing compounds of the samples of sample set (2) is shown below in Table 3.

On to `O=C(CCc1ccc(O)c(O)c1)NCCCNCCCCNCCCNC(=O)CCc1ccc(O)c(O)c1` [KA, Kukoamine A], for which the “salt-enhancing activity on potato chips” value in assay [1] is reported as “salt-enhancing activity”. In addition, the “saltiness enhancement in salt solutions” value in assay [2] is “significant saltiness enhancement”. Also, the “Mean Saltiness Intensity” value in assay [2] (3.52 g NaCl + 1.57 mg KA per L water (1x), pH 6.2-6.5, 15-point scale, eight panelists, Tukey group a (NaCl alone 5.1 b)) is recorded as 5.9 a; in assay [2] (3.52 g NaCl + 4.70 mg KA per L water (3x), pH 6.2-6.5, 15-point scale, eight panelists, Tukey group ab (NaCl alone 5.1 b)) it was 5.6 ab.
Take `O=C(O)c1cc(O[C@@H]2OC[C@@H](O)[C@H](O)[C@H]2O)ccc1O` [GAX, Gentisic acid 5-O-β-D xylopyranoside]: the “salt-enhancing activity on potato chips” value in assay [1] is recorded as “salt-enhancing activity”. Also, in assay [2], the “saltiness enhancement in salt solutions” value is “significant saltiness enhancement”. Further, the “Mean Saltiness Intensity” value in assay [2] (3.52 g NaCl + 0.44 mg GAX per L water (1x), pH 6.2-6.5, 15-point scale, eight panelists, Tukey group a (NaCl alone 5.0 b)) turned out to be 6.0 a; in assay [2] (3.52 g NaCl + 1.32 mg GAX per L water (3x), pH 6.2-6.5, 15-point scale, eight panelists, Tukey group ab (NaCl alone 5.0 b)), 5.4 ab.
For the compound `N[C@@H](Cc1c[nH]c2ccccc12)C(=O)O` [L-Trp, L-tryptophan], the “salt-enhancing activity on potato chips” value in assay [1] is reported as “salt-enhancing activity”. For the same compound, the “Mean Saltiness Intensity” value came to 5.7 a in assay [2] (3.52 g NaCl + 31.66 mg L-Trp per L water (1x), pH 6.2-6.5, 15-point scale, eight panelists, Tukey group a (NaCl alone 5.1 b)) and 5.8 a in assay [2] (3.52 g NaCl + 94.98 mg L-Trp per L water (3x), pH 6.2-6.5, 15-point scale, eight panelists, Tukey group a (NaCl alone 5.1 b)).
On to `[Cl-].[Na+]` [NaCl, sodium chloride], for which the “Mean Saltiness Intensity” value in assay [1] (9.2 g/kg NaCl on potato chips alone, 40% salt reduction sample comparison, nine panelists, Tukey group c) came to 4.2 c; in assay [1] (12.3 g NaCl per Kg potato chips alone, 20% salt reduction sample comparison, nine panelists, Tukey group b), 5.0 b; in assay [1] (15.4 g NaCl (full salt) per Kg potato chips, 20% salt reduction sample comparison, nine panelists, Tukey group a), 6.2 a; in assay [1] (15.4 g NaCl (full salt) per Kg potato chips, 40% salt reduction sample comparison, nine panelists, Tukey group a) it was 6.2 a; in assay [1] (topical coating 9.2 g NaCl per Kg potato chips, 40% reduced salt, 15-point scale, twelve panelists, Tukey group C), 4.2 C; in assay [1] (topical coating 12.3 g NaCl per Kg potato chips, 20% reduced salt, 15-point scale, twelve panelists, Tukey group B), 5.3 B. Moreover, the “Mean Saltiness Intensity” value in assay [1] (topical coating 15.4 g NaCl per Kg potato chips (traditional), 15-point scale, twelve panelists, Tukey group A) turned out to be 6.1 A; in assay [2] (2.64 g NaCl per L water, 40% reduced salt, 15-point scale, twelve panelists, Tukey group C), 4.4 C; in assay [2] (3.52 g NaCl per L water alone, control of GAX sample set, 15-point scale, eight panelists, Tukey group b), 5.0 b; in assay [2] (3.52 g NaCl per L water alone, control of KA sample set, 15-point scale, eight panelists, Tukey group b), 5.1 b; in assay [2] (3.52 g NaCl per L water alone, control of L-Trp sample set, 15-point scale, eight panelists, Tukey group b), 5.1 b; in assay [2] (3.52 g NaCl per L water, 20% reduced salt, 15-point scale, twelve panelists, Tukey group B) it was 5.4 B. Moreover, in assay [2] (4.40 g NaCl per L water (control), 15-point scale, twelve panelists, Tukey group A), the “Mean Saltiness Intensity” value was 7.2 A.
